Measured values: PMC11956017, “Design of Benzyl-triazolopyrimidine-Based NADPH Oxidase Inhibitors Leads to the Discovery of a Potent Dual Covalent NOX2/MAOB Inhibitor” (Journal of Medicinal Chemistry, 2025)
“Also recorded” adds a separate entry of the source.

Assays:
Purified human NOX2 = target: T1, Purified human NOX2 (Homo sapiens, UniProt P04839); assay: Purified human NOX2-p22phox, NADPH depletion assay; assay type: biochemical; conditions: for IC50: 200 nM NOX2, 240 μM NADPH, activated
T1 construct: NOX2 was expressed as native protein in X-CGD PLB-985 cells transduced with the RD114 pseudotyped MFGS-NOX2 vector; made in house; host or cells: X-CGD PLB-985 cells transduced with MFGS-NOX2; Cytosolic proteins made in E. coli
Description: The NADPH depletion assay on human NOX2 for IC50 determinations was performed as described[40],[42] with variations for covalent inhibition. Briefly, the catalytic activity was measured by monitoring the absorbance at 340 nm with a Cary 100 UV–vis spectrophotometer (Varian). A 200 nM purified NOX2-p22^phox heterodimer was added to a 200 μL reaction mix containing a 65 mM sodium phosphate buffer (pH 7.0), 50 μM FAD, 130 μM LiDS, and 1 μM recombinant p67^phox, p47^phox, and Rac1 Q61L. Inhibitors were added at varying concentrations (7 nM–200 μM) and incubated for 1 h at 25 °C. The reaction was started by the addition of 240 μM NADPH.

BV2 cells [1] = assay: MTT viability assay in BV2 cells; assay type: cell-based, murine; conditions: 10 μM, LPS/IFN-γ stimulation, 48 h
Description: BV2 murine microglial cells were cultured in DMEM supplemented with 10% heat-inactivated FBS, 100 IU/mL penicillin G, 100 mg/mL streptomycin, and 2.5 mg/mL amphotericin B and grown at 37 °C in 5% CO2 and a humidified atmosphere. […] After 30 min, LPS 100 ng/mL and IFN-γ 20 ng/mL were added to the medium for an additional 48 h.
Cell viability was determined by the MTT assay. Briefly, MTT (dissolved in PBS with a final concentration of 0.5 mg/mL) was added to the medium culture. After 2 h of incubation, the cells were mixed with DMSO and shaken for 10 min. Finally, the absorption of the samples was read by regulating the 570 nm filter as the main wavelength and the 630 nm filter as the referenced wavelength. The blank was subtracted from all samples to obtain pure cellular absorption. Results are expressed as the percentage of cell survival, taking 100% of the cells treated with the vehicle.

NOX2 [2] = target: T2, NOX2 (Homo sapiens, UniProt P04839); assay: Human NOX2 isolated membranes, cytochrome c assay; assay type: biochemical; set-up: NOX2 was expressed as native protein in X-CGD PLB-985 cells transduced with the RD114 pseudotyped MFGS-NOX2 vector; expressed in transfected cells; host or cells: X-CGD PLB-985 cells transduced with MFGS-NOX2; isolated membranes; Cytosolic proteins made in E. coli; conditions: membrane-embedded NOX2; n = 1; read-out: IC50 NOX2 measured with the cytochrome c assay
Description: The strong activity of NOX2 enabled the use of the peroxide-independent MCLA and cytochrome c assays that probe superoxide formation. IC50 determinations were performed as described, with the same aforementioned modifications for covalent inhibition. Briefly, 20 μg of NOX2-p22^phox membranes was added to a reaction mix with a 65 mM sodium phosphate buffer (pH 7.0), 0.5 μM FAD, 130 μM LiDS, 160 nM p67^phox, p47^phox, Rac1 Q61L, and 1 μM MCLA or 200 μM bovine cytochrome c. The estimated final protein concentration based on the heme’s absorbance was 60 nM. Compounds were incubated for 1 h at 25 °C, at varying concentrations. The reaction started by adding 240 μM NADPH, and measurements were taken by using a GloMax plate reader (Promega; MCLA) or a Cary 100 UV–vis spectrophotometer (Varian; cytochrome c).

BV2 cells [3] = assay: ROS detection with CellROX Deep Red in BV2 cells; assay type: cell-based, murine; conditions: 10 μM, LPS/IFN-γ stimulation, 48 h
Description: BV2 murine microglial cells were cultured in DMEM supplemented with 10% heat-inactivated FBS, 100 IU/mL penicillin G, […] streptomycin, and […] amphotericin B and grown at 37 °C in 5% CO2 and a humidified atmosphere. […] After 30 min, LPS 100 ng/mL and IFN-γ 20 ng/mL were added to the medium for an additional 48 h. After treatment, BV2 cells were incubated with a CellROX Deep Red reagent (cat. no. C10422) at 5 μM and incubated for 30 min at 37 °C as indicated by the manufacturer protocol. ROS levels were measured by a spectrofluorometer, taking as 100% the median fluorescence intensity of cells treated with the vehicle.

NOX2 [4] = target: T2, NOX2; assay: NOX2 inhibition upon preactivation with cytosolic partners, washout, cytochrome c reduction; assay type: biochemical; set-up: NOX2 was expressed as native protein in X-CGD PLB-985 cells transduced with the RD114 pseudotyped MFGS-NOX2 vector; expressed in transfected cells; host or cells: X-CGD PLB-985 cells transduced with MFGS-NOX2; isolated membranes; Cytosolic proteins made in E. coli; conditions: 1 mM compound, 60 min, with or without p47phox/p67phox/Rac1, washout, fresh activators
Description: More in detail, two different mixtures were prepared simultaneously: a “nonpreactivated NOX2” mixture in the absence of cytosolic partners and a “preactivated NOX2” mixture in the presence of cytosolic partners. NOX2-containing membranes (3.9 mg/mL) were added to a sodium phosphate buffer (65 mM, pH 7.0), 50 μM FAD, and 130 μM LiDS, in the presence or absence of 160 nM p67^phox, p47^phox, and Rac1 Q61L in a final volume of 20 μL. Both mixes were incubated with DMSO (vehicle) or 1 mM of the tested compound for 60 min at 25 °C. The mixtures were then centrifuged (20,000g for 10 min) at 4 °C to gently remove the excess of the inhibitor and, if present, of the activators. The supernatants were discarded to eliminate the excess of the nonbound compound, and the pellets were resuspended in the same volume of the fresh buffer. Subsequently, the resuspended pellets were loaded into a spectrophotometric cuvette at a final concentration of 0.39 mg/mL and incubated with fresh cytosolic activators (160 nM), LiDS (130 μM), and cytochrome c (200 μM) for 10 min at 25 °C. […] The reaction was then initiated with 240 μM NADPH and monitored at 550 nm with a Cary 100 UV–vis spectrophotometer (Varian).

bovine albumin = target: T3, bovine albumin (Bos taurus, UniProt P02769); assay: Native mass spectrometry of BSA reactivity; assay type: binding; conditions: BSA 1 µM, compound 5 µM and 20 µM, pH 7.5, 30 minutes
T3 construct: Bovine serum albumin (BSA, Sigma Aldrich, A7030); purchased Sigma Aldrich A7030; host or cells: bovine serum
Description: Protein samples were buffer-exchanged into 200 mM ammonium acetate (pH 7.5) through dialysis prior to native MS analyses. These samples were directly introduced into the mass spectrometer using gold-coated capillary needles prepared in-house.[63] Data were collected on a Q Exactive UHMR hybrid quadrupole-Orbitrap mass spectrometer (Thermo Fisher) with positive polarity. The instrument parameters used for MS spectra collection were the following: capillary voltage, 1.2 kV; scan range from 1000 to 20,000 m/z; HCD collision energy, 0–100 V; source fragmentation, 0 V; in-source trapping, 0 V. The ion transfer optics was set as follows: injection flatapole, 5 V; interflatapole lens, 4 V; bent flatapole, 2 V; transfer multipole, 0 V. The resolution of the instrument was 17,500 at m/z = 200 (transient time of 64 ms), the nitrogen pressure in the HCD cell was maintained at approximately 4 × 10^–10 mbar, and the source temperature was kept at 100 °C. The noise level was set at 3 rather than the default value of 4.64. Calibration of the instruments was performed using 10 mg/mL solution of cesium iodide in water. Data were analyzed using Xcalibur 3.0 (Thermo Scientific), NaViA,[64] and UniDec software packages.[65]

T3 sequence (P02769 25-607): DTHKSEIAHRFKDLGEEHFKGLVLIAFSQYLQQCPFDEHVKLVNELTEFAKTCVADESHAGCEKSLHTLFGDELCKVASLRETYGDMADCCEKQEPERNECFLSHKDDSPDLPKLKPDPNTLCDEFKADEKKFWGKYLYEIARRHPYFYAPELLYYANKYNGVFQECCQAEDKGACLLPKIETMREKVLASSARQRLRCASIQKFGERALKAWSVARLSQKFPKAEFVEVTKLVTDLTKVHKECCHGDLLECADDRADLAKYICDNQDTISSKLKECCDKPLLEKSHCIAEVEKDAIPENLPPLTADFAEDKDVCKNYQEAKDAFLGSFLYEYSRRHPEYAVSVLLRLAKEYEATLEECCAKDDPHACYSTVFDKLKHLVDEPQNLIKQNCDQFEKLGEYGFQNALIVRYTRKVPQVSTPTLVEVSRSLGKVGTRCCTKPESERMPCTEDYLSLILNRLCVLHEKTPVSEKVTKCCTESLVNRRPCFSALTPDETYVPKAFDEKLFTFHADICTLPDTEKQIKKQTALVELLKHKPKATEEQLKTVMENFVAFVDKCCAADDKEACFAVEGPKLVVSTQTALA

SMILES	IC50 (Purified human NOX2)	BV2 cell viability (BV2 cells [1])	IC50 (NOX2 [2])	ROS levels in BV2 cells (BV2 cells [3])	potency on purified NOX2 relative to VAS2870 (more potent) (Purified human NOX2; purified NOX2)	retention of inhibitor by NOX2 after washout, resting vs activated state (NOX2 [4])	adduct formation with bovine serum albumin (bovine albumin)
C#CCNC(=O)c1ccc(Cn2nnc3c(Sc4nc5ccccc5o4)ncnc32)cc1 [Compound 8b, (4-((7-Benzo[d]oxazol-2-yl-thio)-3H-[1,2,3]triazole[4,5-d]pyrimidin-3-yl)methyl)-N-(prop-2-in-1-yl)benzamide]	20100 ± 500 nM						
C#CCN(C)Cc1ccc(Cn2nnc3c(Sc4nc5ccccc5o4)ncnc32)cc1 [Compound 9a, N-(4-((7-(Benzo[d]oxazol-2-ylthio)-3H-[1,2,3]triazolo[4,5-d]pyrimidin-3-yl)methyl)benzyl)-N-methylprop-2-yn-1-amine]	155 ± 30 nM	negligible effects on cells viability	770 nM	decrease the ROS levels; also recorded: strongest ROS-dumping activity	over 20 fold	retained only by the activated	no adduct; also recorded: did not bind
CCCNC(=O)c1ccc(Cn2nnc3c(Sc4nc5ccccc5o4)ncnc32)cc1 [Compound 8a, (4-((7-Benzo[d]oxazol-2-yl-thio)-3H-[1,2,3]triazole[4,5-d]pyrimidin-3-yl)methyl)-N-(propyl)benzamide]	3300 ± 60 nM						
